Experimental data as given in patent US9447100B2, “Substituted pyrazolo[1,5-A] pyrimidines as calcium receptor modulating agents” (Takeda Pharmaceutical Company Limited, priority 2002, dated 2016).
Where a name gives a salt, the structure may show the parent alone.

First: C#CC1(NC(=O)c2cnn3c2NC(c2ccccc2)CC3(C)C)CCCCC1 (centres unmarked) [Example 587, N-(1-ethynylcyclohexyl)-7,7-dimethyl-5-phenyl-4,5,6,7-tetrahydropyrazolo[1,5-a]pyrimidine-3-carboxamide]
Second: COC(=O)C1(NC(=O)c2cnn3c2NC(c2ccccc2)CC3(C)C)CCCCC1 (centres unmarked) [Example 624, methyl 1-(((7,7-dimethyl-5-phenyl-4,5,6,7-tetrahydropyrazolo[1,5-a]pyrimidin-3-yl)carbonyl)amino)cyclo-hexanecarboxylate]
The melting point of the first is higher: 201 to 202 °C for the first, 184 to 185 °C for the second.

First: CC(NC(=O)c1cnn2c1N[C@H](c1ccccc1)C[C@@H]2C(F)(F)F)C(=O)c1ccccc1 (stereo in doubt) [Example 290, N-(1-methyl-2-oxo-2-phenylethyl)-5-phenyl-7-(trifluoromethyl)-4,5,6,7-tetrahydropyrazolo[1,5-a]pyrimidine-3-carboxamide]
Second: O=C(O)c1cnn2c1NC(c1ccc3ccccc3c1)CC2C(F)(F)F (centres unmarked) [Example 22, 5-(2-naphthyl)-7-(trifluoromethyl)-4,5,6,7-tetrahydropyrazolo[1,5-a]pyrimidine-3-carboxylic acid]
The melting point of the first is higher: 271 to 272 °C for the first, 143 to 145 °C for the second.

First: CCC(CC)(NC(=O)c1cnn2c1N(C)C(c1ccccc1)CC2(C)C)c1ccc(C)cc1 (centres unmarked) (as salt: HCl) [Example 827, N-(1-ethyl-1-(4-methylphenyl)propyl)-4,7,7-trimethyl-5-phenyl-4,5,6,7-tetrahydropyrazolo[1,5-a]pyrimidine-3-carboxamide]
Second: CCC(CC)(NC(=O)c1cnn2c1NC(c1ccccc1)CC2(C)C)c1ccc(O)cc1 (centres unmarked) [Example 701, N-(1-ethyl-1-(4-hydroxyphenyl)propyl)-7,7-dimethyl-5-phenyl-4,5,6,7-tetrahydropyrazolo[1,5-a]pyrimidine-3-carboxamide]
The melting point of the first is lower: 120 to 121 °C for the first, 152 to 153 °C for the second.

First: CCC(CC)(NC(=O)c1cnn2c1NC(c1ccccc1)CC2(C)C)c1ccc(N(C)C)cc1 (centres unmarked) [Example 778, N-(1-(4-(dimethylamino)phenyl)-1-ethylpropyl)-7,7-dimethyl-5-phenyl-4,5,6,7-tetrahydropyrazolo[1,5-a]pyrimidine-3-carboxamide]
Second: CCC(CC)(NC(=O)c1cnn2c1NC(c1ccccc1)CC2(C)C)c1ccc(SC)cc1 (centres unmarked) [Example 832, N-(1-ethyl-1-(4-(methylthio)phenyl)propyl)-7,7-dimethyl-5-phenyl-4,5,6,7-tetrahydropyrazolo[1,5-a]pyrimidine-3-carboxamide]
The melting point of the first is lower: 128 to 129 °C for the first, 177 to 178 °C for the second.

`O=C(NC12CC3CC(CC(C3)C1)C2)c1cnn2c1NC(c1ccccc1)CC21CCCCC1` (centres unmarked) and `CCC(CC)(NC(=O)c1cnn2c1NC(c1ccccc1)CC21CCCCC1)c1ccc(C(F)(F)F)cc1` (centres unmarked) [Example 200, N-(1-ethyl-1-(4-(trifluoromethyl)phenyl)propyl)-5′-phenyl-5′,6′-dihydro-4′H-spiro[cyclohexane-1,7′-pyrazolo[1,5-a]pyrimidine]-3′-carboxamide] fall in the same range of melting point: 274 to 275 °C for the first, 274 to 275 °C for the second.

Compared with `O=C(O)c1cnn2c1NC(c1ccc(Cl)cc1)CC2C(F)(F)F` (centres unmarked) [Example 26, 5-(4-chlorophenyl)-7-(trifluoromethyl)-4,5,6,7-tetrahydropyrazolo[1,5-a]pyrimidine-3-carboxylic acid], `CCOC(=O)c1cnn2c1NC(c1ccc3ccccc3c1)CC2C(F)(F)F` (centres unmarked) [Example 2, ethyl 5-(2-naphthyl)-7-(trifluoromethyl)-4,5,6,7-tetrahydropyrazolo[1,5-a]pyrimidine-3-carboxylate] is lower in melting point: 186 to 187 °C for the first, 120 to 122 °C for the second.

Compared with `CCC(CC)(NC(=O)c1c(SC)nn2c1NC(c1ccccc1)CC2(C)C)c1ccc(Cl)cc1` (centres unmarked) (as salt: HCl) [Example 780, N-(1-(4-chlorophenyl)-1-ethylpropyl)-7,7-dimethyl-2-(methylthio)-5-phenyl-4,5,6,7-tetrahydropyrazolo[1,5-a]pyrimidine-3-carboxamide], `CCC(CC)(NC(=O)c1c(C)nn2c1NC(c1ccccc1)CC2(C)C)c1ccc(Cl)cc1` (centres unmarked) (as salt: HCl) [Example 723, N-(1-(4-chlorophenyl)-1-ethylpropyl)-2,7,7-trimethyl-5-phenyl-4,5,6,7-tetrahydropyrazolo[1,5-a]pyrimidine-3-carboxamide] is higher in melting point: 115 to 117 °C for the first, 180 to 181 °C for the second.

Compared with `O=C(NCc1ccc(-c2csnn2)cc1)c1cnn2c1NC(c1ccccc1)CC2C(F)(F)F` (centres unmarked) [Example 278, 5-phenyl-N-(4-(1,2,3-thiadiazol-4-yl)benzyl)-7-(trifluoromethyl)-4,5,6,7-tetrahydropyrazolo[1,5-a]pyrimidine-3-carboxamide], `O=C(NC1C2CC3CC(C2)CC1C3)c1cnn2c1NC(c1ccc3ccccc3c1)CC2C(F)(F)F` (centres unmarked) [Example 90, N-(2-adamantyl)-5-(2-naphthyl)-7-(trifluoromethyl)-4,5,6,7-tetrahydropyrazolo[1,5-a]pyrimidine-3-carboxamide] is higher in melting point: 205 to 206 °C for the first, 280 to 282 °C for the second.

Compared with `CCc1ccc(C(CC)(CC)NC(=O)c2c(C)nn3c2N[C@@H](c2ccccc2F)CC3(C)C)cc1` (as salt: HCl) [Example 1089, (5R)-N-(1-ethyl-1-(4-ethylphenyl)propyl)-5-(2-fluorophenyl)-2,7,7-trimethyl-4,5,6,7-tetrahydropyrazolo[1,5-a]pyrimidine-3-carboxamide], `CCC(CC)(NC(=O)c1c(C)nn2c1NC(c1ccccc1Cl)CC2(C)C)c1ccc(C)cc1` (centres unmarked) (as salt: HCl) [Example 968, 5-(2-chlorophenyl)-N-(1-ethyl-1-(4-methylphenyl)propyl)-2,7,7-trimethyl-4,5,6,7-tetrahydropyrazolo[1,5-a]pyrimidine-3-carboxamide] is higher in melting point: 138 to 139 °C for the first, 173 to 174 °C for the second.

Compared with `CC1(C)CC(c2ccccc2)Nc2c(C(=O)NC(c3ccc(C(F)(F)F)cc3)(C3CCCCC3)C3CCCCC3)cnn21` (centres unmarked) [Example 412, N-(dicyclohexyl(4-(trifluoromethyl)phenyl)methyl)-7,7-dimethyl-5-phenyl-4,5,6,7-tetrahydropyrazolo[1,5-a]pyrimidine-3-carboxamide], `CCC(CC)(NC(=O)c1cnn2c1NC(c1ccccc1OC)CC2(C)C)c1ccc(C(F)(F)F)cc1` (centres unmarked) [Example 590, N-(1-ethyl-1-(4-(trifluoromethyl)phenyl)propyl)-5-(2-methoxyphenyl)-7,7-dimethyl-4,5,6,7-tetrahydropyrazolo[1,5-a]pyrimidine-3-carboxamide] is higher in melting point: 146 to 147 °C for the first, 211 to 213 °C for the second.

Compared with `CCC(CC)(NC(=O)c1c(OCCO)nn2c1NC(c1ccccc1)CC2(C)C)c1ccc(C)cc1` (centres unmarked) [Example 975, N-(1-ethyl-1-(4-methylphenyl)propyl)-2-(2-hydroxyethoxy)-7,7-dimethyl-5-phenyl-4,5,6,7-tetrahydropyrazolo[1,5-a]pyrimidine-3-carboxamide], `CCC(CC)(NC(=O)c1cnn2c1NC(c1ccccc1)CC2(C)C)c1ccc(CCC(=O)O)cc1` (centres unmarked) [Example 749, 3-(4-(1-(((7,7-dimethyl-5-phenyl-4,5,6,7-tetrahydropyrazolo[1,5-a]pyrimidin-3-yl)carbonyl)amino)-1-ethyl-propyl)phenyl)propanoic acid] is higher in melting point: 115 to 117 °C for the first, 240 to 241 °C for the second.

First: CCC(CC)(NC(=O)c1cnn2c1NC(c1ccccc1)CC2(C)C)c1ccc(C(=O)OC(C)C)cc1 (centres unmarked) [Example 733, isopropyl 4-(1-(((7,7-dimethyl-5-phenyl-4,5,6,7-tetrahydropyrazolo[1,5-a]pyrimidin-3-yl)carbonyl)amino)-1-ethylpropyl)benzoate]
Second: CCC(CC)(NC(=O)c1cnn2c1NC(c1ccccc1OC)CC2(C)C)c1ccc(F)cc1 (centres unmarked) [Example 600, N-(1-ethyl-1-(4-fluorophenyl)propyl)-5-(2-methoxyphenyl)-7,7-dimethyl-4,5,6,7-tetrahydropyrazolo[1,5-a]pyrimidine-3-carboxamide]
The melting point of the first is lower: 205 to 206 °C for the first, 206.2 to 206.3 °C for the second.

First: COc1ccccc1C1CC(C)(C)n2nc(C)c(C(=O)O)c2N1 (centres unmarked) [Example 944, 5-(2-methoxyphenyl)-2,7,7-trimethyl-4,5,6,7-tetrahydropyrazolo[1,5-a]pyrimidine-3-carboxylic acid]
Second: Cc1nn2c(c1C(=O)O)NC(c1ccccc1)CC2(C)C (single isomer, unassigned; (+)) [Example 1020, (+)-2,7,7-trimethyl-5-phenyl-4,5,6,7-tetrahydropyrazolo[1,5-a]pyrimidine-3-carboxylic acid]
The melting point of the first is higher: 198 to 199 °C for the first, 190 to 192 °C for the second.

First: CC(C)[C@H]1CC[C@H](C)CC1OC(=O)c1cnn2c1NC(c1ccccc1)CC2(C)C (stereo partly drawn) [Example 1140, (2R,5S)-2-isopropyl-5-methylcyclohexyl 7,7-dimethyl-5-phenyl-4,5,6,7-tetrahydropyrazolo[1,5-a]pyrimidine-3-carboxylate]
Second: CCC1(NC(=O)c2cnn3c2NC(c2ccccc2)CC3(C)C)CC[S+]([O-])CC1 (centres unmarked) [Example 623, N-(4-ethyl-1-oxidotetrahydro-2H-thiopyran-4-yl)-7,7-dimethyl-5-phenyl-4,5,6,7-tetrahydropyrazolo[1,5-a]pyrimidine-3-carboxamide]
The melting point of the first is lower: 123 to 124 °C for the first, 172 to 173 °C for the second.

First: CCC(NC(=O)c1cnn2c1NC(c1ccccc1)CC2(C)C)c1ccccc1Br (centres unmarked) [Example 416, N-(1-(2-bromophenyl)propyl)-7,7-dimethyl-5-phenyl-4,5,6,7-tetrahydropyrazolo[1,5-a]pyrimidine-3-carboxamide]
Second: CCC(CC)(Cc1ccc(Cl)cc1)NC(=O)c1cnn2c1NC(c1ccccc1)CC2(C)C (centres unmarked) [Example 699, N-(1-(4-chlorobenzyl)-1-ethylpropyl)-7,7-dimethyl-5-phenyl-4,5,6,7-tetrahydropyrazolo[1,5-a]pyrimidine-3-carboxamide]
The melting point of the first is higher: 200 to 201 °C for the first, 156 to 157 °C for the second.

First: CCC(CC)(CCSC)NC(=O)c1cnn2c1NC(c1ccccc1)CC2(C)C (centres unmarked) [Example 665, N-(1,1-diethyl-3-(methylthio)propyl)-7,7-dimethyl-5-phenyl-4,5,6,7-tetrahydropyrazolo[1,5-a]pyrimidine-3-carboxamide]
Second: Cc1cccc(C2CC(C)(C)n3nc(C)c(C(=O)O)c3N2)c1 (centres unmarked) [Example 946, 2,7,7-trimethyl-5-(3-methylphenyl)-4,5,6,7-tetrahydropyrazolo[1,5-a]pyrimidine-3-carboxylic acid]
The melting point of the first is higher: 154 to 155 °C for the first, 146 to 148 °C for the second.
